From PubChem BioAssay AID651676 (Sanford-Burnham Center for Chemical Genomics, 2012)
Active and inactive are the calls of the source.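 Rule for the calls: active = EC50 concentration giving half the maximal stem cell survival boost at or below 20 µM; inactive = the rest.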

test system: hiPSC single-cell survival, ATPlite luminescence; experiment: enhancers of single-cell hiPSC survival, SAR follow-up, luminescence (AID 651676)

Structure (SMILES) | EC50
CC(C)NC(=O)c1ccc2c(c1)S(=O)(=O)c1ccccc1C2=O | > 80 µM (inactive)
O=C(Nc1nc(-c2ccncc2)cs1)C1COc2ccccc2O1 (stereo not drawn) | 3.63 µM
COc1ccc(CS(=O)(=O)/C(Cl)=C(/Cl)C(=O)Nc2ccc(OC)nc2)cc1 | 14.1 µM
Cn1c(=O)c2c(ncn2CC(=O)NCc2cccnc2)n(C)c1=O | > 80 µM (inactive)
NC(=O)c1ccc(NC(=O)CCC(=O)c2cccs2)cc1 | 10.5 µM
CC(C)n1c(O)c(C2c3cc(Cl)ccc3Oc3[nH]c(=O)n(C(C)C)c(=O)c32)c(=O)[nH]c1=O (stereo not drawn) | 42.3 µM (inactive)
O=C(OCn1ncc(Cl)c(Cl)c1=O)c1cccc(C(F)(F)F)c1 | 21.6 µM (inactive)
COc1ccc(NC(=O)/C(Cl)=C(/Cl)S(=O)(=O)Cc2ccc(C)cc2)cn1 | 16.6 µM
O=C(Nc1ccncc1)c1cc(S(=O)(=O)N2CCCC2)ccc1Cl | 20.6 µM (inactive)
O=C(OCn1ncc(Br)c(Br)c1=O)c1ccccc1Cl | 6.27 µM
O=C(Nc1ccncc1)c1cc(S(=O)(=O)N2CCOCC2)ccc1Cl | 26.3 µM (inactive)
COc1ccc(Cn2c(O)c(C=NCCCn3ccnc3)c(=O)[nH]c2=O)cc1 | > 80 µM (inactive)
O=S(=O)(c1cccc2cnccc12)N1CCCNCC1 | 7.12 µM
